Patent US11801266B2, “Methods of using anti-MIR126 compounds” (CITY OF HOPE, priority 2019, dated 2023)

What was measured:
[1] = system: normal HSCs; test: Cell cycling (EdU and DAPI) in human normal HSCs; assay type: cell-based; conditions: 500 nM, compared to CpG-scrRNA-treated controls
Protocol: (§1) After transduction performed as above, GFP+ cells selected at 48 h were exposed to NIL (2 μM and 5 μM, Novartis) for another 72 h, and analyzed using assays for cell growth, apoptosis, cell cycle, CFC and CFC replating. Human HSCs and mouse LT-HSCs were also treated with CpG-miR-126 inhibitor or CpG-scrRNA (500 nM), with or without NIL (5 μM), for 72 h and analyzed for cell growth, apoptosis, cell cycle and CFC. Human CML HSCs co-cultured with control or miR-126 KD HUVECs and mouse CML LT-HSCs co-cultured with control or miR-126 KD ECs for 96 h, with or without NIL (5 μM), were also analyzed for cell growth, apoptosis, cell cycle and CFC. Cell growth was measured by Lumino Glo (Promega). Apoptosis was measured by labeling cells with Annexin V-PE or FITC or APC and 4, 6-diamidino-2-phenylindole (DAPI) (all from BD-PharMingen, San Diego, Calif.) and analyzed by flow cytometry. Cell cycle was analyzed by Ki-67-Alexa Fluor 647 (B56, BD) and DAPI labeling based on the manufacturer's protocol. Cells were also exposed to EdU (C10640, Invitrogen) for 2 h and EdU staining was analyzed according to the manufacturer's protocol. Cell proliferation was also measured by CFSE staining (Molecular probes) based on the manufacturer's protocol. […]

[2] = system: CML HSCs; test: Cell cycling (EdU and DAPI) in human CML HSCs; assay type: cell-based; conditions: 500 nM, compared to CpG-scrRNA-treated controls
Protocol: as §1

[3] = system: normal BM LT-HSCs; test: Cell cycling in mouse normal BM LT-HSCs; assay type: cell-based; conditions: 500 nM, 72 h
Protocol: as §1

[4] = system: CML BM LT-HSCs; test: Cell cycling in mouse CML BM LT-HSCs; assay type: cell-based; conditions: 500 nM, 72 h
Protocol: as §1

[5] = system: miR-126; test: In vivo miR-126 down-regulation in sorted LT-HSCs and ECs; parameters: species or system mouse; conditions: normal and CML mice, 5 mg/kg/day iv daily for 3 days; QPCR
Protocol: Next, we evaluated CpG-miR-126 inhibitor-Cy3 uptake in mouse LT-HSCs and ECs in vitro and in vivo. […]
To measure the miRNA and mRNA expression, total RNA was extracted using the miRNeasy Mini Kit (Qiagen, Valencia, Calif.). For miRNA expression, reverse transcription using MultiScribe™ Reverse Transcriptase and Q-PCR analysis using Taqman assays (Applied Biosystems) were performed according to the manufacturer's protocol. RNU44 and snoRNA234 was used as internal controls for human and mouse miRNA respectively. For mRNA expression, first-strand cDNA was synthesized using the SuperScript III First-Strand Kit and then QPCR was performed using TaqMan Gene Expression Assays (Thermo Fisher). BCR-ABL expression in human and mouse samples were measured with primer and probe sequences for BCR-ABL (B3A2 or B2A2), as previously described^46. Results are presented as log 2-transformed ratio according to the 2−ΔCt method (ΔCt=Ct of target−Ct of reference).

[6] = system: normal hematopoiesis; test: Transplantation of BM cells from treated WT B6 mice into recipient mice; assay type: in vivo, mouse; conditions: recipients of BM cells from donor mice treated with scrRNA or inhibitor, 16 weeks after transplantation
[7] = system: CML LSCs; test: In vivo treatment of CML mice (SCLtTA/BCR-ABL BM cells transplanted into congenic B6 mice); parameters: species or system mouse
Protocol: Next, we transplanted BM cells from SCLtTA/BCR-ABL mice (CD45.2) into congenic B6 mice (CD45.1). Following confirmation of CML development at 4 weeks after transplantation, mice were treated as above with scrRNA, inhibitor, scrRNA+NIL, or inhibitor+NIL for 3 weeks.

[8] = system: WT B6 mice; test: Hematologic toxicity in normal WT B6 mice
Protocol: We treated WT B6 mice with CpG-scrRNA (scrRNA) or CpG-miR-126 inhibitor (inhibitor, 5 mg/kg/day i.v.) for 3 weeks, after which we collected their BM cells and transplanted them into recipient mice (3×10^5 BM cells/mouse).
To determine the in vivo effect of the CpG-miR-126 inhibitor on normal hematopoiesis, normal mice were treated with scrRNA or inhibitor for 3 weeks, followed by assessment of WBC, RBC, PLT counts in PB and BM subpopulations in BM.

[9] = WT B6 mice, 5 mg/kg/day i.v. for 3 weeks, compared with scrRNA-treated control mice

Substance: 5′ G*G*T GCA TCG ATG CAGG*G*G* G*G xxxxx mCmGmC mAmUmU mAmUmU mAmCmU mCmAmC mGmGmU mAmCmG mA-3′ (GGTGCATCGATGCAGGGGGGCGCAUUAUUACUCACGGUACGA; CpG ODN, C3 linkers, phosphorothioate, 2'OMe; (1)..(2) phosphorothioation; (2)..(3) phosphorothioation; (16)..(17) phosphorothioation; (17)..(18) phosphorothioation; (18)..(19) phosphorothioation; (19)..(20) phosphorothioation; (20)..(21) Five C3 carbon chain linkers, ((CH2)3)5; modified_base (21)..(21) cm; modified_base (22)..(22) gm; modified_base (23)..(23) cm; modified_base (24)..(24) 2′-O-Methyladenosine; modified_base (25)..(26) um; mod) [CpG-miR-126 inhibitor]
- cell cycling [1]: increased cell cycling
- cell cycling [2]: increased cell cycling
- cell cycling [3]: increased cell cycling
- cell cycling [4]: increased cell cycling
- miR-126 down-regulation in sorted LT-HSCs and ECs [5]: significant miR-126 down-regulation
- donor LT-HSC numbers in BM [6]: no significant differences
- donor cell engraftment in PB, BM or spleen [6]: no significant differences
- miR-126 levels in total ECs, Sca-1+ECs and Sca-1-ECs from BM ([7]; CML mice treated 3 weeks, compared with scrRNA-treated mice): significantly lower miR-126 levels
- mice that survived ([7]; CML mice, 3 weeks of treatment, followed 60 days after treatment discontinuation): 50%
- numbers of ECs in the BM [8, 9]: no significant differences
- numbers of LT-HSCs in the BM [8, 9]: no significant differences
- numbers of WBCs in PB [8, 9]: no significant differences
- numbers of mononuclear cells in the BM [8, 9]: no significant differences
- numbers of platelets (PLT) in PB [8, 9]: no significant differences
- numbers of red blood cells (RBC) in PB [8, 9]: increased
- pre-clinical toxicity for normal hematopoiesis ([8]; overall conclusion, WT B6 mice treated for 3 weeks): lacks pre-clinical toxicity for normal hematopoiesis
